Experimental data as given in patent publication US20240325398A1, “COMBINATION THERAPIES” (Infinity Pharmaceuticals, Inc., priority 2014, published 2024).

Key:
Farage = experiment: Combination study, ATPLite 72 h, dose matrix (Synergy Score, CI50); settings: combination with Compound 1; Farage; 72 h
Experimental: (§1) Cells are thawed from a liquid nitrogen preserved state. Once cells have been expanded and divide at their expected doubling times, screening begins. Cells are seeded in growth media in either black 1536-well or 384-well tissue culture treated plates. Cells are then equilibrated in assay plates via centrifugation and placed in incubators attached to the Dosing Modules at 37° C. for 24 hours before treatment. […] These Tzero (To) plates are read using ultra-sensitive luminescence on Envision plate readers (Perkin Elmer). Treated assay plates are incubated with compound for 72 hours. After 72 hours, plates are developed for endpoint analysis using ATPLite. All data points are collected via automated processes, quality controlled and analyzed using Zalicus software.
(§2) where T is treated cell count and V is untreated (vehicle) cell count (at 72 hours). I ranges from 0% (when T=V) to 100% (when T=0). […] The measure of effect in the experiment can be the inhibition of cellular response relative to the untreated level (vehicle alone). […] The inhibition ranges from 0% at the untreated level to 100% when T=0. Inhibition levels are negative for agents that actually increase levels. Other effect measures, such as an activity ratio r=T/V may be more appropriate for some assays. When activity ratios (e.g, fold increase over stimulated control) are being used, the effect can be measured using an induction 1=ln(T/V). With this definition, all effect expressions are the same as for inhibition.
(§3) Growth Inhibition (GI) is used as a measure of cell viability. […] A GI reading of 100% represents complete growth inhibition—T72 compound-treated and T0 vehicle signals are matched. […] A GI reading of 200% represents complete death of all cells in the culture well. Compounds reaching an activity plateau of GI 200% are considered cytotoxic. GI is calculated by applying the following test and equation:
(§4) Combination analysis data were collected in a 6×6 dose matrix. Synergy is calculated by comparing a combination's response to those of its single compound, against the drug-with-itself dose-additive reference model. Deviations from dose additivity may be assessed visually on an isobologram or numerically with a Combination Index (CI). […] Additive effect is CI=1.0. […] Antagonistic effect is CI>1.0.
The isobologram was drawn by identifying the locus of concentrations that correspond to crossing the indicated inhibition level. This is done by finding the crossing point for each single agent concentration in a dose matrix across the concentrations of the other single agent. Practically, each vertical concentration CY is held fixed while a bisection algorithm is used to identify the horizontal concentration CX in combination with that vertical dose that gives the chosen effect level in the response surface Z(CX,CY). These concentrations are then connected by linear interpolation to generate the isobologram display. For synergistic interactions, the isobologram contour fall below the additivity threshold and approaches the origin, and an antagonistic interaction would lie above the additivity threshold. The error bars represent the uncertainty arising from the individual data points used to generate the isobologram. The uncertainty for each crossing point is estimated from the response errors using bisection to find the concentrations where Z−αZ(CX,CY) and Z+σZ(CX,CY) cross Icut, where αZ is the standard deviation of the residual error on the effect scale.
(§5) To measure combination effects in excess of Loewe additivity, a scalar measure to characterize the strength of synergistic interaction termed the Synergy Score is devised. The Synergy Score is calculated as:
The fractional inhibition for each component agent and combination point in the matrix is calculated relative to the median of all vehicle-treated control wells.

U-2932 = experiment: as above; settings: combination with Compound 1, 72 h
DOHH-2 = experiment: as above; settings: combination with Compound 1, 72 h
Experimental: as §1
The measure of effect in the experiment can be the inhibition of cellular response relative to the untreated level (vehicle alone). […] The inhibition ranges from 0% at the untreated level to 100% when T=0. Inhibition levels are negative for agents that actually increase levels.
as §3, §4, §5
(§6) The fractional inhibition for each component agent and combination point in the matrix is calculated relative to the median of all vehicle-treated control wells. The Synergy Score equation integrates the experimentally-observed activity volume at each point in the matrix in excess of a model surface numerically derived from the activity of the component agents using the Loewe model for additivity. Additional terms in the Synergy Score equation (above) are used to normalize for various dilution factors used for individual agents and to allow for comparison of synergy scores across an entire experiment. The inclusion of positive inhibition gating or an Idata multiplier removes noise near the zero effect level, and biases results for synergistic interactions at that occur at high activity levels.
Loewe Volume (Loewe Vol) is used to assess the overall magnitude of the combination interaction in excess of the Loewe additivity model. Loewe Volume is particularly useful when distinguishing synergistic increases in a phenotypic activity (positive Loewe Volume) versus synergistic antagonisms (negative Loewe Volume). […] This model defines additivity as a non-synergistic combination interaction where the combination dose matrix surface should be indistinguishable from either drug crossed with itself. The calculation for Loewe additivity is:

SU-DHL-4-epst = experiment: as above; settings: combination with Compound 1, 72 h
RPMI-8226 = experiment: as above; settings: combination with Compound 1
TMD8 = experiment: as above; settings: combination with Compound 1; TMD8; 72 h
GRANTA-519 = experiment: as above; settings: combination with Compound 1
Experimental: as §1, §2, §3, §4, §5, §6
Loewe Volume (Loewe Vol) is used to assess the overall magnitude of the combination interaction in excess of the Loewe additivity model. Loewe Volume is particularly useful when distinguishing synergistic increases in a phenotypic activity (positive Loewe Volume) versus synergistic antagonisms (negative Loewe Volume). […] This model defines additivity as a non-synergistic combination interaction where the combination dose matrix surface should be indistinguishable from either drug crossed with itself.

HBL-1 = experiment: as above; settings: combination with Compound 1, 72 h
RL = experiment: as above; settings: combination with Compound 1, 72 h
WSU-NHL = experiment: as above; settings: combination with Compound 1, 72 h
OCI-Ly3 = experiment: as above; settings: combination with Compound 1; OCI-Ly3; 72 h
Mino = experiment: as above; settings: combination with Compound 1
Jeko-1 = experiment: as above; settings: combination with Compound 1
SU-DHL-10-epst = experiment: as above; settings: combination with Compound 1, 72 h
NCI-H929 = experiment: as above; settings: combination with Compound 1
HH = experiment: as above; format: cell-based; settings: combination with Compound 1
Experimental: The method is described as follows.
Additive effect is CI=1.0. […] Antagonistic effect is CI>1.0.
The Synergy Score is calculated as: […]

KARPAS-422 = experiment: as above; settings: combination with Compound 1, 72 h
[1] = as above; settings: combination with Compound 1; OPM-2
OMP-2 = experiment: as above; settings: combination with Compound 1; OPM-2
OCI-Ly7 = experiment: as above; settings: combination with Compound 1, 72 h
KARPAS-299 = experiment: as above; settings: combination with Compound 1

NC1(c2ccc(-c3nc4ccn5c(=O)[nH]nc5c4cc3-c3ccccc3)cc2)CCC1 [MK-2206, 8-[4-(1-aminocyclobutyl)phenyl]-9-phenyl-2H-[1,2,4]triazolo[3,4-f][1,6]naphthyridin-3-one]
CI50 growth inhibition (Farage): S (S=0.01 to <0.5) | CI50 inhibition (Farage): S (S=0.01 to <0.5) | Synergy Score growth inhibition (Farage): A3 (A3=>3) | Synergy Score inhibition (Farage): A3 (A3=>3) | CI50 growth inhibition (U-2932): U (U=0.7 to <1) | CI50 inhibition (U-2932): U (U=0.7 to <1) | Synergy Score growth inhibition (U-2932): A1 (A1=0.0001 to <1) | Synergy Score inhibition (U-2932): A1 (A1=0.0001 to <1) | CI50 growth inhibition (DOHH-2): S (S=0.01 to <0.5) | CI50 inhibition (DOHH-2): S (S=0.01 to <0.5) | Synergy Score growth inhibition (DOHH-2): A3 (A3=>3) | Synergy Score inhibition (DOHH-2): A3 (A3=>3) | CI50 growth inhibition (SU-DHL-4-epst): S (S=0.01 to <0.5) | CI50 inhibition (SU-DHL-4-epst): S (S=0.01 to <0.5) | Synergy Score growth inhibition (SU-DHL-4-epst): A3 (A3=>3) | Synergy Score inhibition (SU-DHL-4-epst): A3 (A3=>3) | CI50 growth inhibition (RPMI-8226): U (U=0.7 to <1) | CI50 inhibition (RPMI-8226): U (U=0.7 to <1) | Synergy Score growth inhibition (RPMI-8226): A2 (A2=1 to <3) | Synergy Score inhibition (RPMI-8226): A1 (A1=0.0001 to <1) | CI50 growth inhibition (TMD8): S (S=0.01 to <0.5) | CI50 inhibition (TMD8): S (S=0.01 to <0.5) | Synergy Score growth inhibition (TMD8): A3 (A3=>3) | Synergy Score inhibition (TMD8): A3 (A3=>3) | CI50 growth inhibition (GRANTA-519): S (S=0.01 to <0.5) | Synergy Score growth inhibition (GRANTA-519): A1 (A1=0.0001 to <1) | Synergy Score inhibition (GRANTA-519): A1 (A1=0.0001 to <1) | CI50 growth inhibition (HBL-1): T (T=0.5 to <0.7) | CI50 inhibition (HBL-1): W (W=≥1) | Synergy Score growth inhibition (HBL-1): A2 (A2=1 to <3) | Synergy Score inhibition (HBL-1): A1 (A1=0.0001 to <1) | CI50 growth inhibition (RL): S (S=0.01 to <0.5) | CI50 inhibition (RL): S (S=0.01 to <0.5) | Synergy Score growth inhibition (RL): A3 (A3=>3) | Synergy Score inhibition (RL): A3 (A3=>3) | CI50 growth inhibition (WSU-NHL): S (S=0.01 to <0.5) | CI50 inhibition (WSU-NHL): S (S=0.01 to <0.5) | Synergy Score growth inhibition (WSU-NHL): A3 (A3=>3) | Synergy Score inhibition (WSU-NHL): A3 (A3=>3) | CI50 growth inhibition (OCI-Ly3): S (S=0.01 to <0.5) | CI50 inhibition (OCI-Ly3): W (W=≥1) | Synergy Score growth inhibition (OCI-Ly3): A2 (A2=1 to <3) | Synergy Score inhibition (OCI-Ly3): A1 (A1=0.0001 to <1) | CI50 growth inhibition (Mino): W (W=≥1) | CI50 inhibition (Mino): U (U=0.7 to <1) | Synergy Score growth inhibition (Mino): A1 (A1=0.0001 to <1) | Synergy Score inhibition (Mino): A1 (A1=0.0001 to <1) | CI50 growth inhibition (Jeko-1): S (S=0.01 to <0.5) | CI50 inhibition (Jeko-1): S (S=0.01 to <0.5) | Synergy Score growth inhibition (Jeko-1): A2 (A2=1 to <3) | Synergy Score inhibition (Jeko-1): A2 (A2=1 to <3) | CI50 growth inhibition (SU-DHL-10-epst): S (S=0.01 to <0.5) | CI50 inhibition (SU-DHL-10-epst): S (S=0.01 to <0.5) | Synergy Score growth inhibition (SU-DHL-10-epst): A3 (A3=>3) | Synergy Score inhibition (SU-DHL-10-epst): A3 (A3=>3) | CI50 growth inhibition (NCI-H929): T (T=0.5 to <0.7) | CI50 inhibition (NCI-H929): U (U=0.7 to <1) | Synergy Score growth inhibition (NCI-H929): A3 (A3=>3) | Synergy Score inhibition (NCI-H929): A2 (A2=1 to <3) | CI50 growth inhibition (HH): S (S=0.01 to <0.5) | CI50 inhibition (HH): S (S=0.01 to <0.5) | Synergy Score growth inhibition (HH): A3 (A3=>3) | Synergy Score inhibition (HH): A2 (A2=1 to <3) | CI50 growth inhibition (KARPAS-422): T (T=0.5 to <0.7) | CI50 inhibition (KARPAS-422): S (S=0.01 to <0.5) | Synergy Score growth inhibition (KARPAS-422): A2 (A2=1 to <3) | Synergy Score inhibition (KARPAS-422): A2 (A2=1 to <3) | CI50 growth inhibition [1]: S (S=0.01 to <0.5) | CI50 inhibition (OMP-2): U (U=0.7 to <1) | Synergy Score growth inhibition (OMP-2): A3 (A3=>3) | Synergy Score inhibition (OMP-2): A2 (A2=1 to <3) | CI50 growth inhibition (OCI-Ly7): U (U=0.7 to <1) | CI50 inhibition (OCI-Ly7): W (W=≥1) | Synergy Score growth inhibition (OCI-Ly7): A1 (A1=0.0001 to <1) | Synergy Score inhibition (OCI-Ly7): A1 (A1=0.0001 to <1) | Synergy Score growth inhibition (KARPAS-299): A1 (A1=0.0001 to <1) | Synergy Score inhibition (KARPAS-299): A1 (A1=0.0001 to <1)

O=C(NOC[C@H](O)CO)c1ccc(F)c(F)c1Nc1ccc(I)cc1F [PD0325901]
CI50 growth inhibition (Farage): W (W=≥1) | CI50 inhibition (Farage): W (W=≥1) | Synergy Score growth inhibition (Farage): A2 (A2=1 to <3) | Synergy Score inhibition (Farage): A1 (A1=0.0001 to <1) | CI50 growth inhibition (U-2932): U (U=0.7 to <1) | Synergy Score growth inhibition (U-2932): A2 (A2=1 to <3) | Synergy Score inhibition (U-2932): A1 (A1=0.0001 to <1) | CI50 growth inhibition (DOHH-2): W (W=≥1) | CI50 inhibition (DOHH-2): W (W=≥1) | Synergy Score growth inhibition (DOHH-2): A1 (A1=0.0001 to <1) | Synergy Score inhibition (DOHH-2): A1 (A1=0.0001 to <1) | CI50 growth inhibition (SU-DHL-4-epst): S (S=0.01 to <0.5) | CI50 inhibition (SU-DHL-4-epst): T (T=0.5 to <0.7) | Synergy Score growth inhibition (SU-DHL-4-epst): A2 (A2=1 to <3) | Synergy Score inhibition (SU-DHL-4-epst): A2 (A2=1 to <3) | CI50 growth inhibition (RPMI-8226): U (U=0.7 to <1) | Synergy Score growth inhibition (RPMI-8226): A2 (A2=1 to <3) | Synergy Score inhibition (RPMI-8226): A2 (A2=1 to <3) | CI50 growth inhibition (TMD8): U (U=0.7 to <1) | CI50 inhibition (TMD8): U (U=0.7 to <1) | Synergy Score growth inhibition (TMD8): A3 (A3=>3) | Synergy Score inhibition (TMD8): A3 (A3=>3) | CI50 growth inhibition (GRANTA-519): S (S=0.01 to <0.5) | Synergy Score growth inhibition (GRANTA-519): A3 (A3=>3) | Synergy Score inhibition (GRANTA-519): A2 (A2=1 to <3) | CI50 growth inhibition (HBL-1): T (T=0.5 to <0.7) | Synergy Score growth inhibition (HBL-1): A2 (A2=1 to <3) | Synergy Score inhibition (HBL-1): A1 (A1=0.0001 to <1) | Synergy Score growth inhibition (RL): A1 (A1=0.0001 to <1) | Synergy Score inhibition (RL): A1 (A1=0.0001 to <1) | CI50 growth inhibition (WSU-NHL): S (S=0.01 to <0.5) | CI50 inhibition (WSU-NHL): S (S=0.01 to <0.5) | Synergy Score growth inhibition (WSU-NHL): A3 (A3=>3) | Synergy Score inhibition (WSU-NHL): A3 (A3=>3) | CI50 growth inhibition (OCI-Ly3): S (S=0.01 to <0.5) | Synergy Score growth inhibition (OCI-Ly3): A2 (A2=1 to <3) | Synergy Score inhibition (OCI-Ly3): A1 (A1=0.0001 to <1) | CI50 growth inhibition (Mino): S (S=0.01 to <0.5) | CI50 inhibition (Mino): S (S=0.01 to <0.5) | Synergy Score growth inhibition (Mino): A3 (A3=>3) | Synergy Score inhibition (Mino): A3 (A3=>3) | CI50 growth inhibition (Jeko-1): U (U=0.7 to <1) | Synergy Score growth inhibition (Jeko-1): A1 (A1=0.0001 to <1) | Synergy Score inhibition (Jeko-1): A1 (A1=0.0001 to <1) | CI50 growth inhibition (SU-DHL-10-epst): S (S=0.01 to <0.5) | CI50 inhibition (SU-DHL-10-epst): S (S=0.01 to <0.5) | Synergy Score growth inhibition (SU-DHL-10-epst): A3 (A3=>3) | Synergy Score inhibition (SU-DHL-10-epst): A2 (A2=1 to <3) | CI50 growth inhibition (NCI-H929): S (S=0.01 to <0.5) | CI50 inhibition (NCI-H929): U (U=0.7 to <1) | Synergy Score growth inhibition (NCI-H929): A3 (A3=>3) | Synergy Score inhibition (NCI-H929): A2 (A2=1 to <3) | CI50 growth inhibition (HH): W (W=≥1) | CI50 inhibition (HH): U (U=0.7 to <1) | Synergy Score growth inhibition (HH): A2 (A2=1 to <3) | Synergy Score inhibition (HH): A1 (A1=0.0001 to <1) | CI50 growth inhibition (KARPAS-422): S (S=0.01 to <0.5) | CI50 inhibition (KARPAS-422): T (T=0.5 to <0.7) | Synergy Score growth inhibition (KARPAS-422): A2 (A2=1 to <3) | Synergy Score inhibition (KARPAS-422): A2 (A2=1 to <3) | CI50 growth inhibition [1]: U (U=0.7 to <1) | CI50 inhibition (OMP-2): W (W=≥1) | Synergy Score growth inhibition (OMP-2): A3 (A3=>3) | Synergy Score inhibition (OMP-2): A2 (A2=1 to <3) | Synergy Score growth inhibition (OCI-Ly7): A1 (A1=0.0001 to <1) | Synergy Score inhibition (OCI-Ly7): A1 (A1=0.0001 to <1) | CI50 growth inhibition (KARPAS-299): S (S=0.01 to <0.5) | Synergy Score growth inhibition (KARPAS-299): A2 (A2=1 to <3) | Synergy Score inhibition (KARPAS-299): A1 (A1=0.0001 to <1)
